Like-named read-outs stand apart in the source and are kept apart here. Starred links: 1 amine or outer side, 2 acyl side, 3 side chain; linkers in the order of their positions; H or OH if unused. Positions of bridges follow the written chain, without caps; N, C: chain ends. Non-standard residues stand in square brackets, D forms with d. Residues, ends and D or L forms follow the SMILES beside them. ξ: configuration not given here. *: point of attachment. X1 = O=C(C(N[*:1])C(O)C(O)c1ccc(O)c(OS(=O)(=O)O)c1)[*:2]; ξOrn(4,5-diOH) = O=C(C(CC(O)C(O)N[*:3])N[*:1])[*:2]; X4 = CCCCCCCCCCCCCC(CC(=O)[*:1])O[*:2]; ξPro(3ξ-OH,4ξ-Me) = CC1CNC(C(=O)O)C1O; X2 = NC(=O)CC(O)C(N[*:1])C(=O)[*:2]; Palmitoyl = CCCCCCCCCCCCCCCC(=O)*; X3 = O=C(C1C(O)CCN1[*:1])[*:2]; Hyp = O=C(O)[CH]1C[CH](O)CN1; Orn = NCCC[CH](N)C(=O)O

The test system of assay [1] is acylase produced by Streptomyces sp. No. 6907. Briefly: Deacylation of cyclic lipopeptide substrates by the acylase of Streptomyces sp. No. 6907 (HPLC, Lineweaver-Burk, substrate specificity). It is filed as biochemical. Conditions: for Vmax / Km: substrate of the acylase, fermentation broth of Streptomyces sp. No. 6907; for Km: read-out: Km value determined by the Lineweaver-Burk method. The procedure:
To 700 μl of the fermentation broth of Streptomyces sp. No. 6907 obtained in Example 1-3 was added 100 μl of an aqueous solution of Substance FR901379 (100 mg/ml) (10 mg as Substance FR901379; 8.35 μmol) together with 100 μl of methanol and 100 μl of buffer (0.5 M potassium dihydrogen phosphate-disodium hydrogen phosphate buffer; pH 6.0), and the reaction was carried out at 30° C. for 30 minutes. The reaction was then stopped with 4% acetic acid and following addition of 2 ml of methanol, the mixture was filtered through a membrane filter (0.45 μm) to remove the macromolecular protein and other fraction and subjected to HPLC and the acylase activity of the skeletal substance FR179642 produced was monitored and assayed at 210 nm.
Using a variable wavelength UV detector (Shimadzu SPD-10A), a pump (Shimadzu LC-10AD) and an integrator (Shimadzu C-R6A) as the instrumentation, LiChrospher 100RP-18(e) (250 mm×4 mm i.d., particle diameter 5 μm(E.Merck)) as the stationary phase, and 3% acetonitrile/0.5% ammonium dihydrogen phosphate as the mobile phase, Substance FR179642 was eluted at a flow rate of 1 ml/min. The retention time of Substance FR179642 was about 6.3 minutes. The yield of Substance FR179642 as calculated from HPLC data was 560 μg (0.60 μmol).
(§1) To 100 μl of the fermentation broth of Streptomyces sp. No. 6907 obtained in Example 1-3 was added 100 μl of a dimethyl sulfoxide solution of Aculeacin A (100 mg/ml) (10 mg as Aculeacin A; 9.65 μmol) together with 500 μl of 1.2 M KCl-containing 500 mM potassium dihydrogen phosphate-disodium hydrogen phosphate buffer (pH 7.0) and 300 μl of water, and the reaction was carried out at 40° C. for 15 minutes. The reaction was then stopped with 1 ml of 4% acetic acid and following addition of 2 ml of methanol, the mixture was filtered through a membrane filter (0.45 μm) to remove the macromolecular protein and other fraction and subjected to HPLC and the acylase activity of the nuclear substance Aculeacin A produced was monitored at 210 nm and determined. Using a variable wavelength UV detector (Shimadzu SPD-10A), a pump (Shimadzu LC-10AD) and an integrator (Shimadzu C-R6A) as the instrumentation, LiChrospher 100RP-18(e) (250 mm×4 mm i.d., particle diameter 5 μm (E.Merck)) as the stationary phase, and 4% acetonitrile/1% ammonium dihydrogen phosphate as the mobile phase, nuclear substance Aculeacin A was eluted at a flow rate of 1 ml/min. The retention time of nuclear substance Aculeacin A was about 8.7 minutes. The yield of nuclear substance Aculeacin A as calculated from HPLC data was 370 μg (0.47 μmol).
as §1, with “Echinocandin B” for “Aculeacin A”, “Echinocandin B; 9.43” for “Aculeacin A; 9.65”, “monitored and assayed” for “monitored”, “nm.” for “nm and determined.”, “90” for “370”, “(0.11” for “(0.47”
To 2.0 ml of the fermentation broth of Streptomyces sp. […]

Assay [2] concerns the target T1, Actinoplanes utahensis-derived acylase (Actinoplanes utahensis, UniProt P29958).
T1 construct: To 20 ml of a fermentation broth of Actinoplanes utahensis IF013244; endogenous in cells; host or cells: Actinoplanes utahensis IF013244 (so in the source), whole fermentation broth
T1 sequence (P29958 230-786 limits assumed): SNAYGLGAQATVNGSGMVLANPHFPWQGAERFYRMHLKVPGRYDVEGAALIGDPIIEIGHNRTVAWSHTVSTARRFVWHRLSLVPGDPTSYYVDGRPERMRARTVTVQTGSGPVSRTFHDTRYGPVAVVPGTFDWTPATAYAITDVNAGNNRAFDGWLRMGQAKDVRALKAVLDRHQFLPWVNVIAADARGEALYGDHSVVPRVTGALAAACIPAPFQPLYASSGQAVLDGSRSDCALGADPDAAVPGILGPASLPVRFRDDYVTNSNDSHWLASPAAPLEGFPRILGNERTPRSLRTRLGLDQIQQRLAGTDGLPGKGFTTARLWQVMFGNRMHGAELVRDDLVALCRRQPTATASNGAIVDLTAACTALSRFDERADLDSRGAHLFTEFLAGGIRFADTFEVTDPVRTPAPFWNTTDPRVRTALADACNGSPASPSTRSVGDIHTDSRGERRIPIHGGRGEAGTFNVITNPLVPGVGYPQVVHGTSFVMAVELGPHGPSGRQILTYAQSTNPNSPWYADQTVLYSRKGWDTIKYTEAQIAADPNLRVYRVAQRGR
T1 sequence (P29958 35-214 limits assumed): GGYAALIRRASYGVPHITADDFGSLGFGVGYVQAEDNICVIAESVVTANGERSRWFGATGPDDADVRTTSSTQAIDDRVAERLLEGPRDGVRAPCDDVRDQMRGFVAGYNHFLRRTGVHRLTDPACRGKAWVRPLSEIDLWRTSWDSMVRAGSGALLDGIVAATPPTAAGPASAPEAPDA
Briefly: Deacylation of Substance FR901469 by Actinoplanes utahensis acylase (HPLC of Substance FR181131). Format: biochemical, Actinoplanes utahensis IF013244. Conditions: produces Substance FR181131. The procedure: To 20 ml of a fermentation broth of Actinoplanes utahensis IF013244 as prepared by the procedure described in J. Antibiotics, Vol. 41, p. 1085-1092 ('88) was added 1 ml of an aqueous solution of Substance FR901469 (200 mg/ml) (0.2 g as Substance FR901469; 130 μmol) together with 2.9 g of disodium hydrogen phosphate and 60 ml of water, and the reaction was carried out at 60° C. for 24 hours. After completion of the reaction, the reaction mixture was filtered through a membrane filter (0.45 μm) to remove the high molecular protein and other fraction and purified by HPLC under monitoring for Substance FR181131 at 210 nm and the acylase activity was determined. Using a variable wavelength UV detector (Shimadzu SPD-10A), a pump (Shimadzu LC-10AD) and an integrator (Shimadzu C-R6A) as the instrumentation, YMC AM303 (250 mm×4 mm i.d., particle diameter 5 μm) as the stationary phase, and 12.5% acetonitrile/0.5% ammonium dihydrogen phosphate as the mobile phase, Substance FR181131 was eluted at a flow rate of 1 ml/min. The retention time of Substance FR181131 was about 7.3 minutes. The yield of Substance FR181131 as calculated from HPLC data was 80 mg (68 μmol).

As for `CCCCCCCCCCCCCC1CC(=O)NC(C(C)O)C(=O)NC(C)C(=O)NC(Cc2ccc(O)cc2)C(=O)NC(C(C)C)C(=O)N2CC(O)CC2C(=O)NC(C(C)O)C(=O)NC(C(C)O)C(=O)N2CCC(O)C2C(=O)NC(C(O)CC(N)=O)C(=O)NCC(=O)NC(C(C)O)C(=O)NC(CCCN)C(=O)O1` (stereo not drawn) [Substance FR901469] (TAYV[Hyp]TT[X3][X2]GT[Orn]; linker N-C via X4; configuration not given here), the “Substrate specificity (catalytic action of the acylase on the substrate)” value (“Substrate specificity” for short) in assay [1] was “exerts no catalytic action”; in assay [1] (listed as FR901469), “does not act upon”; in assay [2], “exerts a catalytic action”.

As to `CCCCCCCCCCCCCCCC(=O)NC1CC(O)C(O)NC(=O)C2C(O)C(C)CN2C(=O)C(C(O)CC(N)=O)NC(=O)C(C(O)C(O)c2ccc(O)c(OS(=O)(=O)O)c2)NC(=O)C2CC(O)CN2C(=O)C(C(C)O)NC1=O` (stereo not drawn) [Substance FR901379] (Palmitoyl-[ξOrn(4,5-diOH)]T[Hyp][X1][X2][ξPro(3ξ-OH,4ξ-Me)]; lactam 1-C; configuration not given here), in assay [1], the “Substrate specificity” value is “acts as a catalyst”, the Vmax is 14.3 U/mg-protein and the Km stood at 257 µM.

With Aculeacin A, in assay [1], the “Substrate specificity” value was “acts as a catalyst”, the Vmax was found to be 16.8 U/mg-protein and the Michaelis-Menten constant (Km) is 279 µM.

As for Echinocandin B, in assay [1], the “Substrate specificity” value is reported as “acts as a catalyst”, the Vmax was 7.85 U/mg-protein and the Km amounted to 146 µM.

A word on the Km: it is the concentration of substrate that gives half-maximal velocity.

These data come from patent US6573084B1, “Process for the deacylation of cyclic lipopeptides” (Fujisawa Pharmaceutical Co., Ltd., priority 1996, dated 2003).
